Activity calls are given as the source filed them. Cut-off read from the data, not from the text of the source: actives have a measured EC50 and inactives only a lower limit.
How the values were obtained:
[1] = cytotoxicity toward NIH3T3 fibroblasts, dose response, counter-screen, cell-based, ATP luminescence, mouse fibroblasts (AID 2010); assay type: functional;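 note: cells exposed to compound for about 90 hours before reading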
[2] = inhibitors of intracellular T. cruzi replication, confirmation, NIH3T3 host cells, beta-gal luminescence (AID 2044); assay type: functional, cell-based;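 note: intracellular parasites grown in NIH/3T3 mouse fibroblasts as host cells; luminescent beta-galactosidase reporter signal from transgenic T. cruzi replicating inside host cells; inhibitors lower the luminescence signal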

With CC(=O)c1ccc(N2CCN(C(=O)c3ccc(Cn4c(=S)[nH]c5ccc(N6CCOCC6)cc5c4=O)cc3)CC2)cc1 the EC50 [1] was > 60 µM (not active) and the EC50 [2] was 1.07 µM (active).

With C=CCOc1c(Br)cc(CNCCCN2CCOCC2)cc1OC the EC50 [1] was 22.9 µM (active) and the EC50 [2] was 0.521 µM (active).

In the case of COC(=O)c1ccc(C2Nc3cccc4cccc(c34)N2)cc1, the EC50 [1] is reported as > 60 µM (not active) and the EC50 [2] is reported as 6.1 µM (active).

For CN(CCc1ccccn1)Cc1ccc(Cl)cc1, the EC50 [1] was > 60 µM (not active) and the EC50 [2] was 0.221 µM (active).

With O=C(COc1ccccc1)NC(=S)Nc1ccc2c(c1)Cc1ccccc1-2 the EC50 [1] was > 60 µM (not active) and the EC50 [2] was 0.641 µM (active).

With Fc1ccccc1Cc1noc(CN2CCN(C/C=C/c3ccccc3)CC2)n1 the EC50 [1] was > 60 µM (inconclusive) and the EC50 [2] was 0.443 µM (active).

In the case of Cc1ccc(S(=O)(=O)NCC(c2cccnc2)N2CCN(Cc3ccccc3)CC2)cc1 (stereo unspecified), the EC50 [1] is reported as > 60 µM (not active) and the EC50 [2] is reported as 0.732 µM (active).

For CCC(c1nnnn1CS(=O)(=O)c1ccc(C)cc1)N1CCN(c2nc3ccccc3s2)CC1 (stereo unspecified), the EC50 [1] was > 30 µM (not active) and the EC50 [2] was 0.861 µM (active).

In the case of COc1ccc(N2CCN(C(=O)c3ccc(Cn4c(=S)[nH]c5ccc(N6CCOCC6)cc5c4=O)cc3)CC2)cc1, the EC50 [1] is reported as > 30 µM (not active) and the EC50 [2] is reported as 0.684 µM (active).

For C=CCNCCOCCOc1ccc(C)cc1Br, the EC50 [1] was > 60 µM (not active) and the EC50 [2] was 3.36 µM (active).

With CC(COc1cccc2ccccc12)CN1CCN(C)CC1 (stereo unspecified) the EC50 [1] was > 30 µM (not active) and the EC50 [2] was 0.284 µM (active).

In the case of COc1cccc(CN2CCN(Cc3c(C)nn(C(C)C)c3C)CC2CCO)c1 (stereo unspecified), the EC50 [1] is reported as > 60 µM (not active) and the EC50 [2] is reported as 1.14 µM (active).

In the case of CC(C)c1cccc(OCCCCN(C)C)c1, the EC50 [1] is reported as > 60 µM (not active) and the EC50 [2] is reported as 0.587 µM (active).

For COc1c(C)cc(Br)cc1C(=O)Nc1ccc(Cc2ccncc2)cc1, the EC50 [1] was > 60 µM (not active) and the EC50 [2] was 2.16 µM (active).

With Cc1nn(CC(N)=O)c(=O)c2ccccc12 the EC50 [1] was > 30 µM (not active) and the EC50 [2] was 0.903 µM (active).

In the case of CCCCn1c2ccc(F)cc2c2nnc(SCCN3CCCCC3)nc21, the EC50 [1] is reported as > 60 µM (not active) and the EC50 [2] is reported as 0.681 µM (active).

For O=C(NCC1CCCO1)C(c1cccs1)N(Cc1ccccc1Cl)C(=O)c1ccc(-c2ccccc2)[nH]1 (stereo unspecified), the EC50 [1] was > 30 µM (not active) and the EC50 [2] was 2.96 µM (active).

With O=C(Nc1nc(-c2ccc(F)cc2)cs1)C1CCN(C(=O)c2ccc(F)cc2)CC1 the EC50 [1] was > 60 µM (not active) and the EC50 [2] was 4.57 µM (active).

For Cc1ccc(SCCN2CCN(C)CC2)cc1, the EC50 [1] was 10.3 µM (active) and the EC50 [2] was 0.852 µM (active).

With COc1cc(S(=O)(=O)N2CCC(O)(c3cccc(C(F)(F)F)c3)CC2)ccc1-n1cnnn1 the EC50 [1] was > 60 µM (not active) and the EC50 [2] was 2.61 µM (active).

In the case of CCO/C(O)=C/C1=NC2(CCCCC2)Cc2cc(OC)c(OC)cc21, the EC50 [1] is reported as > 60 µM (not active) and the EC50 [2] is reported as 2.2 µM (active).

With Cc1oc(-c2cccc(Cl)c2)nc1CN1CCCC(C(=O)NCCCN2CCOCC2)C1 (stereo unspecified) the EC50 [1] was > 60 µM (not active) and the EC50 [2] was 0.234 µM (active).

For CCN(CC)P(=O)(Nc1ccccc1Br)c1ccc(N(C)C)cc1NC(=O)c1ccco1 (stereo unspecified), the EC50 [1] was > 60 µM (not active) and the EC50 [2] was 1.95 µM (active).

For N#CC(C(=O)OC1CCCCC1)c1nc2ccccc2nc1N1CCCCC1 (stereo unspecified), the EC50 [1] was 8.74 µM (active) and the EC50 [2] was 1.01 µM (active).

In the case of O=C1C2C(c3ccccc3)CC=CC2[C@H](c2cccc([N+](=O)[O-])c2)N1Cc1ccccc1 (stereo partly specified), the EC50 [1] is reported as > 60 µM (not active) and the EC50 [2] is reported as 2.17 µM (active).

For CC(C)OC(=O)c1cn(-c2ccccc2)nc1-c1ccco1, the EC50 [1] was 31.6 µM (active) and the EC50 [2] was 1.61 µM (active).

For Cc1nn(Cc2ccc(F)cc2)c(Cl)c1/C=N/NC(=O)c1ccccc1, the EC50 [1] was > 60 µM (not active) and the EC50 [2] was 2.67 µM (active).

For CN1/C(=C/c2cccc[n+]2C)Sc2ccccc21, the EC50 [1] was > 60 µM (not active) and the EC50 [2] was 0.185 µM (active).
